In the supplement of paper PMC10307832:

Key:
Assay in all cases: relative viability (nuclei count vs DMSO), 5 days (fraction); higher = more cells survive
Elesclomol + Vorinostat = compound: CN(NC(=O)CC(=O)NN(C)C(=S)c1ccccc1)C(=S)c1ccccc1 [Elesclomol] + O=C(CCCCCCC(=O)Nc1ccccc1)NO [Vorinostat] (partner 1 µM)
Outline: (§1)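 Five library-drug doses in √10 steps were combined with a fixed anchor-drug dose, or a single drug was given alone, by pin tool to lung cancer cell lines in 1536-well plates the day after seeding. Nuclei were stained and counted after 5 days. Relative viability is the nuclei count in treated wells over that in vehicle wells, taken as the median of duplicate plates.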

Elesclomol + Tozasertib = compound: CN(NC(=O)CC(=O)NN(C)C(=S)c1ccccc1)C(=S)c1ccccc1 [Elesclomol] + Cc1cc(Nc2cc(N3CCN(C)CC3)nc(Sc3ccc(NC(=O)C4CC4)cc3)n2)n[nH]1 [Tozasertib] (partner 0.1 µM)
Outline: as §1

Elesclomol + Olaparib = compound: CN(NC(=O)CC(=O)NN(C)C(=S)c1ccccc1)C(=S)c1ccccc1 [Elesclomol] + O=C(c1cc(Cc2n[nH]c(=O)c3ccccc23)ccc1F)N1CCN(C(=O)C2CC2)CC1 [Olaparib] (partner 8 µM)
Outline: as §1

Elesclomol + Dasatinib = compound: CN(NC(=O)CC(=O)NN(C)C(=S)c1ccccc1)C(=S)c1ccccc1 [Elesclomol] + Cc1nc(Nc2ncc(C(=O)Nc3c(C)cccc3Cl)s2)cc(N2CCN(CCO)CC2)n1 [Dasatinib] (partner 0.075 µM)
Outline: as §1

Elesclomol + Linsitinib = compound: CN(NC(=O)CC(=O)NN(C)C(=S)c1ccccc1)C(=S)c1ccccc1 [Elesclomol] + C[C@]1(O)C[C@@H](c2nc(-c3ccc4ccc(-c5ccccc5)nc4c3)c3c(N)nccn32)C1 [Linsitinib] (partner 1 µM)
Outline: as §1

Row | Cell Line | relative viability (Elesclomol + Vorinostat; first compound 0.003162 µM) | relative viability (Elesclomol + Vorinostat; first compound 0.01 µM) | relative viability (Elesclomol + Vorinostat; first compound 0.03162 µM) | relative viability (Elesclomol + Vorinostat; first compound 0.1 µM) | relative viability (Elesclomol + Tozasertib; first compound 0.003162 µM) | relative viability (Elesclomol + Tozasertib; first compound 0.01 µM) | relative viability (Elesclomol + Tozasertib; first compound 0.03162 µM) | relative viability (Elesclomol + Tozasertib; first compound 0.1 µM) | relative viability (Elesclomol + Olaparib; first compound 0.003162 µM) | relative viability (Elesclomol + Olaparib; first compound 0.01 µM) | relative viability (Elesclomol + Olaparib; first compound 0.03162 µM) | relative viability (Elesclomol + Olaparib; first compound 0.1 µM) | relative viability (Elesclomol + Dasatinib; first compound 0.003162 µM) | relative viability (Elesclomol + Dasatinib; first compound 0.01 µM) | relative viability (Elesclomol + Dasatinib; first compound 0.03162 µM) | relative viability (Elesclomol + Dasatinib; first compound 0.1 µM) | relative viability (Elesclomol + Linsitinib; first compound 0.003162 µM) | relative viability (Elesclomol + Linsitinib; first compound 0.01 µM) | relative viability (Elesclomol + Linsitinib; first compound 0.03162 µM) | relative viability (Elesclomol + Linsitinib; first compound 0.1 µM)
1 | 201T | 0.968 | 0.995 | 0.869 | 0.68 | 0.984 | 0.88 | 0.911 | 0.536 | 0.843 | 0.843 | 0.844 | 0.705 | 0.535 | 0.587 | 0.543 | 0.236 | 1.08 | 1.01 | 1 | 1.01
2 | A549 |  |  |  |  |  |  |  |  | 0.289 | 0.22 | 0.189 | 0.0697 |  |  |  |  | 0.627 | 0.501 | 0.378 | 0.097
3 | A-427 | 0.823 | 0.755 | 0.192 | 0.15 | 0.226 | 0.186 | 0.149 | 0.0996 | 0.52 | 0.424 | 0.232 | 0.164 | 0.661 | 0.582 | 0.358 | 0.127 | 1.1 | 1.08 | 1.14 | 0.578
4 | ABC-1 | 0.426 | 0.249 | 0.262 | 0.244 | 0.193 | 0.203 | 0.18 | 0.187 | 0.23 | 0.428 | 0.248 | 0.342 | 0.173 | 0.233 | 0.207 | 0.193 | 0.267 | 0.207 | 0.308 | 0.212
5 | BEN | 0.585 | 0.563 | 0.448 | 0.385 | 0.592 | 0.399 | 0.45 | 0.402 | 0.828 | 0.68 | 0.656 | 0.362 | 0.359 | 0.204 | 0.219 | 0.159 | 0.763 | 0.403 | 0.322 | 0.239
6 | CAL-12T | 0.66 | 0.245 | 0.101 | 0.0721 | 0.268 | 0.17 | 0.0901 | 0.0485 | 0.64 | 0.321 | 0.117 | 0.0718 | 0.282 | 0.117 | 0.0442 | 0.0555 | 0.942 | 0.321 | 0.0785 | 0.0465
7 | COR-L23 | 0.378 | 0.156 | 0.144 | 0.0678 | 0.234 | 0.155 | 0.15 | 0.0966 | 0.314 | 0.254 | 0.143 | 0.0895 | 0.439 | 0.254 | 0.141 | 0.068 | 0.985 | 0.511 | 0.32 | 0.244
8 | COR-L 105 | 1 | 0.57 | 0.361 | 0.336 | 0.385 | 0.285 | 0.223 | 0.142 | 0.713 | 0.575 | 0.365 | 0.275 | 0.303 | 0.248 | 0.21 | 0.079 | 0.715 | 0.494 | 0.371 | 0.202
9 | ChaGo-K-1 | 0.791 | 0.638 | 0.338 | 0.146 | 0.223 | 0.177 | 0.147 | 0.163 | 0.423 | 0.396 | 0.232 | 0.125 | 0.609 | 0.458 | 0.214 | 0.116 |  |  |  | 
10 | EKVX | 0.659 | 0.336 | 0.241 | 0.253 | 0.343 | 0.281 | 0.199 | 0.141 | 0.713 | 0.364 | 0.193 | 0.106 | 0.474 | 0.315 | 0.226 | 0.202 | 0.915 | 0.6 | 0.239 | 0.17
11 | EMC-BAC-2 | 0.486 | 0.231 |  | 0.22 | 0.307 | 0.265 | 0.275 | 0.213 | 0.445 | 0.345 | 0.381 | 0.288 | 0.361 | 0.28 | 0.286 | 0.138 | 0.851 | 0.807 | 0.699 | 0.455
12 | EPLC-272H | 0.178 | 0.0788 | 0.133 | 0.129 | 0.223 |  | 0.331 | 0.101 | 0.592 | 0.157 | 0.132 | 0.178 | 0.397 |  | 0.405 | 0.059 | 1.25 |  | 1.05 | 0.26
13 | H3255 | 0.843 | 0.62 | 0.426 | 0.44 | 0.569 | 0.525 | 0.405 | 0.364 | 0.488 | 0.456 | 0.482 | 0.316 | 0.387 | 0.396 | 0.274 | 0.222 | 1.01 | 0.702 | 0.428 | 0.432
14 | HARA | 0.607 | 0.542 | 0.616 | 0.163 | 0.155 | 0.108 | 0.0878 | 0.0669 | 0.774 | 0.524 | 0.417 | 0.36 | 0.244 | 0.312 | 0.283 | 0.0991 | 1.11 | 0.927 | 0.872 | 0.21
15 | HCC-15 | 0.81 | 0.776 | 0.645 | 0.265 | 0.358 | 0.292 | 0.204 | 0.159 | 0.646 | 0.631 | 0.536 | 0.217 | 0.533 | 0.386 | 0.169 | 0.0668 | 0.882 | 0.735 | 0.61 | 0.38
16 | HCC-44 | 1.09 | 1.16 | 1.16 | 1.08 | 0.897 | 0.794 | 0.17 | 0.194 | 0.965 | 0.914 | 0.976 | 1 |  |  |  |  | 0.678 | 0.604 | 0.623 | 0.345
17 | HCC-78 | 0.46 | 0.38 | 0.36 | 0.553 | 0.378 | 0.426 | 0.399 | 0.483 | 0.735 | 0.574 | 0.641 | 0.945 | 0.28 | 0.407 | 0.319 | 0.34 | 0.425 | 0.521 | 0.497 | 0.408
18 | HCC-366 | 0.371 | 0.228 | 0.173 | 0.0207 | 0.158 | 0.0679 | 0.0952 | 0.0212 | 0.369 | 0.31 | 0.108 | 0.0162 | 0.596 | 0.624 | 0.542 | 0.029 | 0.689 | 0.663 | 0.622 | 0.0082
19 | HCC-827 | 0.759 | 0.777 | 0.742 | 0.767 | 0.432 | 0.4 | 0.421 | 0.355 | 0.58 | 0.522 | 0.672 | 0.475 | 0.253 | 0.217 | 0.276 | 0.425 | 0.959 | 0.851 | 1.03 | 0.707
20 | HOP-62 | 0.659 | 0.469 | 0.477 | 0.136 | 0.359 | 0.305 | 0.277 | 0.141 | 0.487 | 0.191 | 0.0744 | 0.08 | 0.678 | 0.638 | 0.458 | 0.213 | 0.909 | 0.94 | 0.994 | 0.184
21 | LC-2-ad | 0.642 | 0.608 | 0.24 | 0.169 | 0.394 | 0.274 | 0.277 | 0.231 | 0.722 | 0.622 | 0.277 | 0.197 | 0.492 | 0.196 | 0.202 | 0.179 | 0.91 | 0.761 | 0.117 | 0.112
22 | LCLC-97TM1 | 0.724 | 0.283 | 0.707 | 0.0661 | 0.196 | 0.148 | 0.178 | 0.153 | 0.402 | 0.295 | 0.379 | 0.0862 | 0.854 | 0.765 | 0.798 | 0.264 | 0.175 | 0.16 | 0.141 | 0.116
23 | LCLC-103H | 0.82 | 0.496 | 0.877 | 0.568 | 0.477 | 0.377 | 0.426 | 0.202 | 0.724 | 0.737 | 0.815 | 0.639 | 0.498 | 0.344 | 0.533 | 0.399 | 1.11 | 1.02 | 1.01 | 1.07
24 | LK-2 | 0.395 | 0.232 | 0.167 | 0.121 | 0.172 | 0.166 | 0.153 | 0.12 | 0.65 | 0.503 | 0.332 | 0.0869 | 0.275 | 0.367 | 0.23 | 0.105 | 0.428 | 0.21 | 0.0808 | 0.0624
25 | NCI-H522 | 0.927 | 0.888 | 0.862 | 0.604 | 0.563 | 0.608 | 0.567 | 0.465 | 0.617 | 0.812 | 0.618 | 0.431 | 0.842 | 0.812 | 0.868 | 0.454 |  |  |  | 
26 | NCI-H1650 | 0.3 | 0.22 | 0.146 | 0.11 | 0.227 | 0.168 | 0.139 | 0.136 | 0.583 | 0.291 | 0.145 | 0.0879 | 0.21 | 0.17 | 0.156 | 0.154 |  |  |  | 
27 | NCI-H1703 |  |  |  |  |  |  |  |  | 0.173 | 0.0985 | 0.093 | 0.0575 |  |  |  |  | 0.179 | 0.122 | 0.0723 | 0.0652
28 | NCI-H1792 |  |  |  |  |  |  |  |  | 0.5 |  | 0.395 | 0.169 | 0.951 | 0.586 | 0.612 | 0.655 | 0.506 | 0.387 | 0.584 | 0.577
29 | NCI-H2170 | 0.808 | 0.683 | 0.777 | 0.408 | 0.715 | 0.641 | 0.703 | 0.491 | 0.55 | 0.558 | 0.638 | 0.344 | 0.546 | 0.539 | 0.484 | 0.43 |  |  |  | 
30 | NCI-H2342 | 0.732 | 0.8 | 0.757 | 0.771 | 0.466 | 0.476 | 0.332 | 0.324 | 0.476 | 0.37 | 0.434 | 0.367 | 0.318 | 0.305 | 0.247 | 0.267 |  |  |  | 
